≈ marks a conversion by molar mass, not a printed value.
System: Candida albicans
Test: Antifungal activity against Candida albicans
Assay type: functional
Conditions: not given

| Molecule | MIC [µg/mL] |
| --- | --- |
| Brc1ccccc1-c1nnc2sc(-c3ccccc3)nn12 | 3.12 (≈ 8.75 µM) |
| Cc1ccc(/C=N/n2c(S)nnc2-c2ccncc2)cc1 | 10.2 to 162 (≈ 34.5 to 550 µM) |
| C=CC/C=N/n1c(S)nnc1-c1ccncc1 | 10.2 to 162 (≈ 41.6 to 662 µM) |
| CCC/C=N/n1c(S)nnc1-c1ccncc1 | 10.2 to 162 (≈ 41.2 to 657 µM) |

System: Pseudomonas aeruginosa
Test: Antibacterial activity against Pseudomonas aeruginosa ATCC 27853 after 24 hrs by microdilution method
Assay type: functional
Conditions: ATCC 27853, 24 h

| Molecule | MIC [µg/mL] |
| --- | --- |
| CCCCCCCCCCCCCCCCn1nnc(-c2n[nH]c(=S)n2N)c1-c1n[nH]c(=S)n1N | 1 to 128 (≈ 1.92 to 245 µM) |

System: Enterococcus faecalis
Test: Antibacterial activity against Enterococcus faecalis ATCC 29212 after 24 hrs by microdilution method
Assay type: functional
Conditions: ATCC 29212, 24 h

| Molecule | MIC [µg/mL] |
| --- | --- |
| CCCCCCCCCCCCCCCCn1nnc(-c2n[nH]c(=S)n2N)c1-c1n[nH]c(=S)n1N | 1 to 128 (≈ 1.92 to 245 µM) |

System: Pseudomonas aeruginosa
Test: Antibacterial activity against Pseudomonas aeruginosa
Assay type: functional
Conditions: not given

| Molecule | MIC [µg/mL] |
| --- | --- |
| Cc1ccc(/C=N/n2c(S)nnc2-c2ccncc2)cc1 | 10.2 to 162 (≈ 34.5 to 550 µM) |
| C=CC/C=N/n1c(S)nnc1-c1ccncc1 | 10.2 to 162 (≈ 41.6 to 662 µM) |
| CCC/C=N/n1c(S)nnc1-c1ccncc1 | 10.2 to 162 (≈ 41.2 to 657 µM) |

System: Aspergillus niger
Test: Antifungal activity against Aspergillus niger
Assay type: functional
Conditions: not given

| Molecule | MIC [µg/mL] |
| --- | --- |
| Brc1ccccc1-c1nnc2sc(-c3ccccc3)nn12 | 6.25 (≈ 17.5 µM) |
| Cc1ccc(/C=N/n2c(S)nnc2-c2ccncc2)cc1 | 10.2 to 162 (≈ 34.5 to 550 µM) |
| C=CC/C=N/n1c(S)nnc1-c1ccncc1 | 10.2 to 162 (≈ 41.6 to 662 µM) |
| CCC/C=N/n1c(S)nnc1-c1ccncc1 | 10.2 to 162 (≈ 41.2 to 657 µM) |

System: Clostridium tetani
Test: Antibacterial activity against Clostridium tetani
Assay type: functional
Conditions: not given

| Molecule | MIC [µg/mL] |
| --- | --- |
| Cc1ccc(-c2cc(-c3c(C)nn(-c4ccccc4)c3-n3cncn3)n3c(n2)nc2ccccc23)cc1 | 62.5 to 250 (≈ 130 to 518 µM) |
| Cc1nn(-c2ccccc2)c(-n2cncn2)c1-c1cc(-c2ccc(-c3cc[nH]c3)cc2)nc2nc3ccccc3n12 | 62.5 to 250 (≈ 117 to 469 µM) |
| Cc1nn(-c2ccccc2)c(-n2cncn2)c1-c1cc(-c2ccc(O)cc2)nc2nc3ccccc3n12 | 62.5 to 250 (≈ 129 to 516 µM) |
| COc1ccc(-c2cc(-c3c(C)nn(-c4ccccc4)c3-n3cncn3)n3c(n2)nc2ccccc23)cc1 | 62.5 to 250 (≈ 125 to 501 µM) |
| NYSTATIN | 100 to 500 |
| Cc1nn(-c2ccccc2)c(-n2cncn2)c1-c1cc(-c2ccc(-c3cccs3)cc2)nc2nc3ccccc3n12 | 62.5 to 250 (≈ 114 to 454 µM) |
| Cc1nn(-c2ccccc2)c(-n2cncn2)c1-c1cc(-c2ccccc2)nc2nc3ccccc3n12 | 62.5 to 250 (≈ 133 to 534 µM) |
| COC1=CC(=O)C[C@@H](C)[C@]12Oc1c(Cl)c(OC)cc(OC)c1C2=O [GRISEOFULVIN] | 100 to 500 (≈ 283 to 1420 µM) |

System: Escherichia coli
Test: Antibacterial activity against Escherichia coli
Assay type: functional
Conditions: not given

| Molecule | MIC [µg/mL] |
| --- | --- |
| Cc1ccc(-c2cc(-c3c(C)nn(-c4ccccc4)c3-n3cncn3)n3c(n2)nc2ccccc23)cc1 | 62.5 to 250 (≈ 130 to 518 µM) |
| Cc1nn(-c2ccccc2)c(-n2cncn2)c1-c1cc(-c2ccc(-c3cc[nH]c3)cc2)nc2nc3ccccc3n12 | 62.5 to 250 (≈ 117 to 469 µM) |
| Cc1nn(-c2ccccc2)c(-n2cncn2)c1-c1cc(-c2ccc(O)cc2)nc2nc3ccccc3n12 | 62.5 to 250 (≈ 129 to 516 µM) |
| COc1ccc(-c2cc(-c3c(C)nn(-c4ccccc4)c3-n3cncn3)n3c(n2)nc2ccccc23)cc1 | 62.5 to 250 (≈ 125 to 501 µM) |
| NYSTATIN | 100 to 500 |
| Cc1nn(-c2ccccc2)c(-n2cncn2)c1-c1cc(-c2ccc(-c3cccs3)cc2)nc2nc3ccccc3n12 | 62.5 to 250 (≈ 114 to 454 µM) |
| Cc1nn(-c2ccccc2)c(-n2cncn2)c1-c1cc(-c2ccccc2)nc2nc3ccccc3n12 | 62.5 to 250 (≈ 133 to 534 µM) |
| Cc1ccc(/C=N/n2c(S)nnc2-c2ccncc2)cc1 | 10.2 to 162 (≈ 34.5 to 550 µM) |
| C=CC/C=N/n1c(S)nnc1-c1ccncc1 | 10.2 to 162 (≈ 41.6 to 662 µM) |
| CCC/C=N/n1c(S)nnc1-c1ccncc1 | 10.2 to 162 (≈ 41.2 to 657 µM) |
| COC1=CC(=O)C[C@@H](C)[C@]12Oc1c(Cl)c(OC)cc(OC)c1C2=O [GRISEOFULVIN] | 100 to 500 (≈ 283 to 1420 µM) |

System: Candida albicans
Test: Antifungal activity against Candida albicans ATCC 50193 after 24 hrs by microdilution method
Assay type: functional
Conditions: ATCC 50193, 24 h

| Molecule | MIC [µg/mL] |
| --- | --- |
| CCCCCCCCCCCCCCCCn1nnc(-c2n[nH]c(=S)n2N)c1-c1n[nH]c(=S)n1N | 1 to 128 (≈ 1.92 to 245 µM) |

System: Bacillus subtilis
Test: Antibacterial activity against Bacillus subtilis
Assay type: functional
Conditions: not given

| Molecule | MIC [µg/mL] |
| --- | --- |
| Cc1ccc(-c2cc(-c3c(C)nn(-c4ccccc4)c3-n3cncn3)n3c(n2)nc2ccccc23)cc1 | 62.5 to 250 (≈ 130 to 518 µM) |
| Cc1nn(-c2ccccc2)c(-n2cncn2)c1-c1cc(-c2ccc(-c3cc[nH]c3)cc2)nc2nc3ccccc3n12 | 62.5 to 250 (≈ 117 to 469 µM) |
| Cc1nn(-c2ccccc2)c(-n2cncn2)c1-c1cc(-c2ccc(O)cc2)nc2nc3ccccc3n12 | 62.5 to 250 (≈ 129 to 516 µM) |
| COc1ccc(-c2cc(-c3c(C)nn(-c4ccccc4)c3-n3cncn3)n3c(n2)nc2ccccc23)cc1 | 62.5 to 250 (≈ 125 to 501 µM) |
| NYSTATIN | 100 to 500 |
| Cc1nn(-c2ccccc2)c(-n2cncn2)c1-c1cc(-c2ccc(-c3cccs3)cc2)nc2nc3ccccc3n12 | 62.5 to 250 (≈ 114 to 454 µM) |
| Cc1nn(-c2ccccc2)c(-n2cncn2)c1-c1cc(-c2ccccc2)nc2nc3ccccc3n12 | 62.5 to 250 (≈ 133 to 534 µM) |
| Cc1ccc(/C=N/n2c(S)nnc2-c2ccncc2)cc1 | 10.2 to 162 (≈ 34.5 to 550 µM) |
| C=CC/C=N/n1c(S)nnc1-c1ccncc1 | 10.2 to 162 (≈ 41.6 to 662 µM) |
| CCC/C=N/n1c(S)nnc1-c1ccncc1 | 10.2 to 162 (≈ 41.2 to 657 µM) |
| COC1=CC(=O)C[C@@H](C)[C@]12Oc1c(Cl)c(OC)cc(OC)c1C2=O [GRISEOFULVIN] | 100 to 500 (≈ 283 to 1420 µM) |

System: Staphylococcus aureus
Test: Antibacterial activity against Staphylococcus aureus
Assay type: functional
Conditions: not given

| Molecule | MIC [µg/mL] |
| --- | --- |
| Cc1ccc(-c2cc(-c3c(C)nn(-c4ccccc4)c3-n3cncn3)n3c(n2)nc2ccccc23)cc1 | 62.5 to 250 (≈ 130 to 518 µM) |
| Cc1nn(-c2ccccc2)c(-n2cncn2)c1-c1cc(-c2ccc(-c3cc[nH]c3)cc2)nc2nc3ccccc3n12 | 62.5 to 250 (≈ 117 to 469 µM) |
| Cc1nn(-c2ccccc2)c(-n2cncn2)c1-c1cc(-c2ccc(O)cc2)nc2nc3ccccc3n12 | 62.5 to 250 (≈ 129 to 516 µM) |
| COc1ccc(-c2cc(-c3c(C)nn(-c4ccccc4)c3-n3cncn3)n3c(n2)nc2ccccc23)cc1 | 62.5 to 250 (≈ 125 to 501 µM) |
| NYSTATIN | 100 to 500 |
| Cc1nn(-c2ccccc2)c(-n2cncn2)c1-c1cc(-c2ccc(-c3cccs3)cc2)nc2nc3ccccc3n12 | 62.5 to 250 (≈ 114 to 454 µM) |
| Cc1nn(-c2ccccc2)c(-n2cncn2)c1-c1cc(-c2ccccc2)nc2nc3ccccc3n12 | 62.5 to 250 (≈ 133 to 534 µM) |
| Cc1ccc(/C=N/n2c(S)nnc2-c2ccncc2)cc1 | 10.2 to 162 (≈ 34.5 to 550 µM) |
| C=CC/C=N/n1c(S)nnc1-c1ccncc1 | 10.2 to 162 (≈ 41.6 to 662 µM) |
| CCC/C=N/n1c(S)nnc1-c1ccncc1 | 10.2 to 162 (≈ 41.2 to 657 µM) |
| COC1=CC(=O)C[C@@H](C)[C@]12Oc1c(Cl)c(OC)cc(OC)c1C2=O [GRISEOFULVIN] | 100 to 500 (≈ 283 to 1420 µM) |

System: Streptococcus pneumoniae
Test: Antibacterial activity against Streptococcus pneumoniae
Assay type: functional
Conditions: not given

| Molecule | MIC [µg/mL] |
| --- | --- |
| Cc1ccc(-c2cc(-c3c(C)nn(-c4ccccc4)c3-n3cncn3)n3c(n2)nc2ccccc23)cc1 | 62.5 to 250 (≈ 130 to 518 µM) |
| Cc1nn(-c2ccccc2)c(-n2cncn2)c1-c1cc(-c2ccc(-c3cc[nH]c3)cc2)nc2nc3ccccc3n12 | 62.5 to 250 (≈ 117 to 469 µM) |
| Cc1nn(-c2ccccc2)c(-n2cncn2)c1-c1cc(-c2ccc(O)cc2)nc2nc3ccccc3n12 | 62.5 to 250 (≈ 129 to 516 µM) |
| COc1ccc(-c2cc(-c3c(C)nn(-c4ccccc4)c3-n3cncn3)n3c(n2)nc2ccccc23)cc1 | 62.5 to 250 (≈ 125 to 501 µM) |
| NYSTATIN | 100 to 500 |
| Cc1nn(-c2ccccc2)c(-n2cncn2)c1-c1cc(-c2ccc(-c3cccs3)cc2)nc2nc3ccccc3n12 | 62.5 to 250 (≈ 114 to 454 µM) |
| Cc1nn(-c2ccccc2)c(-n2cncn2)c1-c1cc(-c2ccccc2)nc2nc3ccccc3n12 | 62.5 to 250 (≈ 133 to 534 µM) |
| COC1=CC(=O)C[C@@H](C)[C@]12Oc1c(Cl)c(OC)cc(OC)c1C2=O [GRISEOFULVIN] | 100 to 500 (≈ 283 to 1420 µM) |

System: Staphylococcus aureus
Test: Antibacterial activity against Staphylococcus aureus ATCC 25923 after 24 hrs by microdilution method
Assay type: functional
Conditions: ATCC 25923, 24 h

| Molecule | MIC [µg/mL] |
| --- | --- |
| CCCCCCCCCCCCCCCCn1nnc(-c2n[nH]c(=S)n2N)c1-c1n[nH]c(=S)n1N | 1 to 128 (≈ 1.92 to 245 µM) |

System: Proteus mirabilis
Test: Antibacterial activity against Proteus mirabilis ATCC 35659 after 24 hrs by microdilution method
Assay type: functional
Conditions: ATCC 35659, 24 h

| Molecule | MIC [µg/mL] |
| --- | --- |
| CCCCCCCCCCCCCCCCn1nnc(-c2n[nH]c(=S)n2N)c1-c1n[nH]c(=S)n1N | 1 to 128 (≈ 1.92 to 245 µM) |

System: Aspergillus brasiliensis
Test: Antifungal activity against Aspergillus brasiliensis ATCC 16404 after 24 hrs by microdilution method
Assay type: functional
Conditions: ATCC 16404, 24 h

| Molecule | MIC [µg/mL] |
| --- | --- |
| CCCCCCCCCCCCCCCCn1nnc(-c2n[nH]c(=S)n2N)c1-c1n[nH]c(=S)n1N | 1 to 128 (≈ 1.92 to 245 µM) |

System: Bacillus cereus
Test: Antibacterial activity against Bacillus cereus ATCC 10876 after 24 hrs by microdilution method
Assay type: functional
Conditions: ATCC 10876, 24 h

| Molecule | MIC [µg/mL] |
| --- | --- |
| CCCCCCCCCCCCCCCCn1nnc(-c2n[nH]c(=S)n2N)c1-c1n[nH]c(=S)n1N | 1 to 128 (≈ 1.92 to 245 µM) |

System: Escherichia coli
Test: Antibacterial activity against Escherichia coli ATCC 25922 after 24 hrs by microdilution method
Assay type: functional
Conditions: ATCC 25922, 24 h

| Molecule | MIC [µg/mL] |
| --- | --- |
| CCCCCCCCCCCCCCCCn1nnc(-c2n[nH]c(=S)n2N)c1-c1n[nH]c(=S)n1N | 1 to 128 (≈ 1.92 to 245 µM) |
